In PubChem BioAssay AID248 (DTP/NCI, 2004):
Several values for one entry are separate records, joined by “and”; a condition that tells them apart may be missing. Equal entries are not always repeated. Toxic doses and inconclusive results are not listed. Cut-off read from the data, not from the text of the source: active = T/C of 150% or more; inactive = T/C below 125%.

Test system: L1210 leukemia ip in BDF1 mice, survival T/C
Assay: NCI In Vivo Anticancer Drug Screen. Data for tumor model L1210 Leukemia (intraperitoneal) in B6D2F1 (BDF1) mice
Conditions: endpoint: mean survival time, higher = longer survival
In short: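 Transplanted-tumor mice were given test agent; controls received vehicle only. Survival readings from the two groups were divided (treated over control).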

[1] = dose: 25.0 mg/kg/injection, schedule: Q01DX009 (ip), vehicle: saline
[2] = dose: 100.0 mg/kg/injection, schedule: Q01DX001 (ip), vehicle: saline with Tween-80
[3] = dose: 200.0 mg/kg/injection, schedule: Q01DX001 (ip), vehicle: saline with Tween-80
[4] = dose: 100.0 mg/kg/injection, schedule: Q01DX009 (ip), vehicle: saline with Tween-80
[5] = dose: 100.0 mg/kg/injection, schedule: Q04DX003 (ip), vehicle: saline with Tween-80
[6] = dose: 200.0 mg/kg/injection, schedule: Q01DX009 (ip), vehicle: saline with Tween-80
[7] = dose: 200.0 mg/kg/injection, schedule: Q04DX003 (ip), vehicle: saline with Tween-80
[8] = dose: 400.0 mg/kg/injection, schedule: Q04DX003 (ip), vehicle: saline with Tween-80
[9] = dose: 50.0 mg/kg/injection, schedule: Q01DX009 (ip), vehicle: saline
[10] = dose: 100.0 mg/kg/injection, schedule: Q01DX009 (ip), vehicle: saline
[11] = dose: 100.0 mg/kg/injection, schedule: Q04DX003 (ip), vehicle: saline
[12] = dose: 100.0 mg/kg/injection, schedule: Q01DX001 (ip), vehicle: saline
[13] = dose: 200.0 mg/kg/injection, schedule: Q01DX001 (ip), vehicle: saline
[14] = dose: 400.0 mg/kg/injection, schedule: Q01DX001 (ip), vehicle: saline

Measured: T/C

Cc1ccc(/C=C2/COC/C(=C\c3ccc(C)cc3)C2=O)cc1
inactive: dose: 6.0 mg/kg/injection, schedule: Q01DX009 (ip), vehicle: saline 96 % of control | dose: 12.0 mg/kg/injection, schedule: Q01DX001 (ip), vehicle: saline 88 % of control | dose: 12.0 mg/kg/injection, schedule: Q01DX009 (ip), vehicle: saline 94 % of control | dose: 25.0 mg/kg/injection, schedule: Q01DX001 (ip), vehicle: saline 93 % of control | [1] 109 % of control

Cc1cc(CC#N)c(CC#N)cc1C
inactive: dose: 50.0 mg/kg/injection, schedule: Q01DX001 (ip), vehicle: carboxymethylcellulose (CMC) 110 % of control | dose: 50.0 mg/kg/injection, schedule: Q01DX009 (ip), vehicle: carboxymethylcellulose (CMC) 96 % of control and 117 % of control | dose: 50.0 mg/kg/injection, schedule: Q04DX002 (ip), vehicle: carboxymethylcellulose (CMC) 94 % of control and 102 % of control | dose: 50.0 mg/kg/injection, schedule: Q04DX003 (ip), vehicle: carboxymethylcellulose (CMC) 98 % of control | dose: 100.0 mg/kg/injection, schedule: Q01DX001 (ip), vehicle: carboxymethylcellulose (CMC) 97 % of control | dose: 100.0 mg/kg/injection, schedule: Q01DX009 (ip), vehicle: carboxymethylcellulose (CMC) 100 % of control and 106 % of control | dose: 100.0 mg/kg/injection, schedule: Q04DX002 (ip), vehicle: carboxymethylcellulose (CMC) 102 % of control and 105 % of control | dose: 100.0 mg/kg/injection, schedule: Q04DX003 (ip), vehicle: carboxymethylcellulose (CMC) 95 % of control | dose: 200.0 mg/kg/injection, schedule: Q01DX009 (ip), vehicle: carboxymethylcellulose (CMC) 96 % of control | dose: 200.0 mg/kg/injection, schedule: Q04DX002 (ip), vehicle: carboxymethylcellulose (CMC) 97 % of control and 107 % of control

OC1C2C=CC1C1C=CC1=CC2 (stereo not given)
inactive: dose: 50.0 mg/kg/injection, schedule: Q01DX001 (ip), vehicle: saline with Tween-80 103 % of control | [2] 108 % of control | [3] 98 % of control

CCOC(=O)C(C(=O)OCC)=C(C)C
inactive: [4] 95 % of control | [5] 100 % of control | [6] 100 % of control | [7] 100 % of control | dose: 400.0 mg/kg/injection, schedule: Q01DX009 (ip), vehicle: saline with Tween-80 102 % of control | [8] 106 % of control

ClCCCNCc1ccccc1
inactive: [1] 111 % of control | [9] 97 % of control | [10] 97 % of control | [11] 94 % of control

C/C(=C\C(=O)O)c1ccc(-c2ccccc2)cc1
inactive: [2] 96 % of control | [3] 100 % of control | dose: 400.0 mg/kg/injection, schedule: Q01DX001 (ip), vehicle: saline with Tween-80 102 % of control

Clc1cc[n+](-c2ccncc2)cc1
inactive: [12] 103 % of control | [10] 100 % of control and 105 % of control | dose: 100.0 mg/kg/injection, schedule: Q04DX002 (ip), vehicle: saline 97 % of control and 103 % of control | [11] 95 % of control | [13] 90 % of control | dose: 200.0 mg/kg/injection, schedule: Q01DX009 (ip), vehicle: saline 105 % of control and 89 % of control | dose: 200.0 mg/kg/injection, schedule: Q04DX002 (ip), vehicle: saline 94 % of control and 89 % of control | dose: 200.0 mg/kg/injection, schedule: Q04DX003 (ip), vehicle: saline 101 % of control | [14] 97 % of control | dose: 400.0 mg/kg/injection, schedule: Q01DX009 (ip), vehicle: saline 97 % of control | dose: 400.0 mg/kg/injection, schedule: Q04DX002 (ip), vehicle: saline 100 % of control and 92 % of control | dose: 400.0 mg/kg/injection, schedule: Q04DX003 (ip), vehicle: saline 88 % of control

Cc1ccc(CCl)cc1
inactive: [4] 102 % of control | [5] 100 % of control | [6] 102 % of control | [7] 104 % of control | [8] 102 % of control

CCOC(=O)C(Cc1ccc(OCc2ccccc2)c(OCc2ccccc2)c1)(NC(C)=O)C(=O)OCC
inactive: dose: 100.0 mg/kg/injection, schedule: Q04DX003 (ip), vehicle: other 102 % of control | dose: 200.0 mg/kg/injection, schedule: Q04DX003 (ip), vehicle: other 100 % of control | dose: 400.0 mg/kg/injection, schedule: Q04DX003 (ip), vehicle: other 98 % of control

COc1ccc2c(C)[n+]3ccc4cc(OC)c(OC)cc4c3cc2c1 (tested in a mixture with another compound)
inactive: dose: 2.5 mg/kg/injection, schedule: Q01DX009 (ip), vehicle: saline 120 % of control | dose: 5.0 mg/kg/injection, schedule: Q01DX009 (ip), vehicle: saline 121 % of control | dose: 6.25 mg/kg/injection, schedule: Q01DX009 (ip), vehicle: saline 117 % of control | dose: 12.5 mg/kg/injection, schedule: Q01DX009 (ip), vehicle: saline 121 % of control | dose: 15.0 mg/kg/injection, schedule: Q01DX009 (ip), vehicle: saline 110 % of control | dose: 20.0 mg/kg/injection, schedule: Q01DX009 (ip), vehicle: saline 123 % of control | [1] 123 % of control | dose: 40.0 mg/kg/injection, schedule: Q01DX009 (ip), vehicle: saline 124 % of control | [9] 115 % of control | dose: 80.0 mg/kg/injection, schedule: Q01DX009 (ip), vehicle: saline 105 % of control | [10] 115 % of control | dose: 108.0 mg/kg/injection, schedule: Q01DX009 (ip), vehicle: saline 100 % of control

COc1ccc2[nH]c3c(C)cc(C=O)c(C)c3c2c1
inactive: dose: 100.0 mg/kg/injection, schedule: Q01DX001 (ip), vehicle: other 101 % of control | [5] 102 % of control | dose: 200.0 mg/kg/injection, schedule: Q01DX001 (ip), vehicle: other 95 % of control | [7] 101 % of control | dose: 400.0 mg/kg/injection, schedule: Q01DX001 (ip), vehicle: other 91 % of control | [8] 96 % of control

Nc1nc2nc(N=Nc3ccc(N=Nc4nc5nc(N)[nH]c(=O)c5[nH]4)cc3)[nH]c2c(=O)[nH]1
inactive: dose: 100.0 mg/kg/injection, schedule: Q04DX003 (ip), vehicle: Klucel (hydroxypropylcellulose) (HPC) 91 % of control | dose: 200.0 mg/kg/injection, schedule: Q04DX003 (ip), vehicle: Klucel (hydroxypropylcellulose) (HPC) 99 % of control | dose: 400.0 mg/kg/injection, schedule: Q04DX003 (ip), vehicle: Klucel (hydroxypropylcellulose) (HPC) 88 % of control

ClCCn1nc2c(c1-c1ccc(Cl)cc1)CCc1ccccc1-2
inactive: dose: 100.0 mg/kg/injection, schedule: Q04DX003 (ip), vehicle: gum acacia 92 % of control | dose: 200.0 mg/kg/injection, schedule: Q04DX003 (ip), vehicle: gum acacia 98 % of control | dose: 400.0 mg/kg/injection, schedule: Q04DX003 (ip), vehicle: gum acacia 95 % of control

CCC1C(=O)OCc2c1cc1n(c2=O)Cc2cc3ccccc3nc2-1 (stereo not given)
inactive: dose: 2.5 mg/kg/injection, schedule: Q01DX001 (ip), vehicle: saline 102 % of control | dose: 5.0 mg/kg/injection, schedule: Q01DX001 (ip), vehicle: saline 107 % of control | dose: 10.0 mg/kg/injection, schedule: Q01DX001 (ip), vehicle: saline 102 % of control | dose: 15.0 mg/kg/injection, schedule: Q01DX001 (ip), vehicle: saline 118 % of control

CSCSCC(N)C(=O)O (stereo not given)
inactive: [12] 94 % of control | dose: 150.0 mg/kg/injection, schedule: Q04DX003 (ip), vehicle: saline 100 % of control | [13] 100 % of control | dose: 300.0 mg/kg/injection, schedule: Q04DX003 (ip), vehicle: saline 94 % of control | [14] 100 % of control | dose: 600.0 mg/kg/injection, schedule: Q04DX003 (ip), vehicle: saline 97 % of control
